# Counter-ions that a name gives are not always drawn. Ends that are not written are not given here.
# Experiment: not given
# Settings: Tables 3a-3e; from cited literature; CD4 T-helper cells; cited from earlier work
row,Molecule,Immunosuppressive Effects
1,Fc1ccc([C@@H]2CCNC[C@H]2COc2ccc3c(c2)OCO3)cc1 [Paroxetine],Decreases CD4 T-Helper Cells.

# Same assay, conditions: Tables 3a-3e; from cited literature; cited from earlier work
row,Molecule,Immunosuppressive Effects
1,Cc1nnc2n1-c1ccc(Cl)cc1C(c1ccccc1)=NC2 [Alprazolam],Inhibits proliferative responses
2,COc1ccc(C(CN(C)C)C2(O)CCCCC2)cc1 (stereo not drawn) [Venlafaxine],Suppresses pro-Inflammatory
3,NS(=O)(=O)Cc1noc2ccccc12 [Zonisamide],Suppression of IFN-gamma
4,CN1C(=O)CN=C(c2ccccc2)c2cc(Cl)ccc21 [Diazepam],Markedly Suppresses Antigen-
5,"N[C@@H](Cc1cc(I)c(Oc2cc(I)c(O)c(I)c2)c(I)c1)C(=O)O [Levoxyl, Levothyroxine]",Inhibits Cytokine
6,"O=C1NC(=O)C(c2ccccc2)(c2ccccc2)N1 [Dilantin, Phenytoin sodium]",Humoral Immune Suppressant
7,CC(C)c1nc(N(C)S(C)(=O)=O)nc(-c2ccc(F)cc2)c1/C=C/[C@@H](O)C[C@@H](O)CC(=O)O [Rosuvastatin],Post-Transcriptional Level
8,CNCCC(Oc1ccc(C(F)(F)F)cc1)c1ccccc1 (stereo not drawn) [Fluoxethine],Decreases T Lymphocyte
9,Nc1ccc(O)c(C(=O)O)c1 [Mesalazine],Potent and Specific Inhibitor
10,CC(C)c1c(C(=O)Nc2ccccc2)c(-c2ccccc2)c(-c2ccc(F)cc2)n1CC[C@@H](O)C[C@@H](O)CC(=O)O [Atorvastatin],Increases in IL-10 Production.

# Same assay, conditions: Tables 3a-3e; from cited literature; hydrochloride; antigen-specific TH1 responses; cited from earlier work
row,Molecule,Immunosuppressive Effects
1,CN[C@H]1CC[C@@H](c2ccc(Cl)c(Cl)c2)c2ccccc21 [Sertraline hydrochloride],Suppression of Antigen-

# Same assay, conditions: Tables 3a-3e; from cited literature; splenocyte viability; cited from earlier work
row,Molecule,Immunosuppressive Effects
1,Fc1ccc([C@@H]2CCNC[C@H]2COc2ccc3c(c2)OCO3)cc1 [Paroxetine],Inhibit Splenocyte Viability.

# Experiment: Solubility / hydrophilicity of mimotopic peptides, free or with amino-ADOOA-ADOOA linker
# Assay type: physicochemical
# Settings: not given
# From the text: Dimeric IgE complexing hinges upon disruption of the overhanging oligodendrocyte membrane surface and facilitated intracellular autoantibody inflow. […] Table 4a lists structurally unique, mimotopic, peptides serving as diagnostic and therapeutic antigens. […] Peptides used for initial diagnosis can be of maximum, unique length (column 3) or can be fractionated into pentameric, single epitope equivalents (column 5). […] The amide group is used for covalent Coupling to microplate wells. The 3,6-dioxaoctanoic acid2 construct, being very hydrophilic, solubilizes most al peptides, especially those that are relatively hydrophobic. The listed myelin, dimer-cornerstone peptide homologues (bold-highlighted) for MS therapy are useful because of their in-vivo: (a) net hydrophilicity for adequate solubility; […] The linker provides both increased hydrophilicity for enhanced solubility and serves as a point of attachment onto microtiter test plate wells. The peptide […] NO: 3) is an example of a soluble short peptide that is comprised of a singularly unique MOG surface pentamer, […]
Molecule,hydrophilicity / solubilization when coupled with amino-ADOOA-ADOOA linker,solubility of short therapeutic peptide,aggregation tendency
DNEVFGEA,sufficiently hydrophilic,,
YKDSHHPA,solubilize readily,,
DHSYQE [DHSYQE],,soluble,
QDTAVT [QDTAVT],sufficiently hydrophilic,,
KDSHHPA [Lys Asp Ser His His Pro Ala],solubilize readily,,
DNTFKD [DNTFKD],sufficiently hydrophilic,,
PKNAW [PKNAW],sufficiently hydrophilic,,
Lys Gly Thr Gln Phe (KGTQF; listed as Homo sapiens) [KTGQF],,,dual molecule aggregate-forming tendencies
LQTIQE [LQTIQE],sufficiently hydrophilic,,
NLHRTFE [Asn Leu His Arg Thr Phe Glu],sufficiently hydrophilic,,
HGRTQ [HGRTQ],solubilize readily,,
